Usually IC50 stands for the concentration that gives 50% inhibition. Low values mean inhibition by little substance, high ones a need for much substance.

Each structure is given as a SMILES string. A value given as a limit tells only on which side of the number the result lay.

The target in the experiment is human MRGPRD (Homo sapiens, UniProt Q8TDS7). The experiment is described as follows: MRGPRD antagonist activity, IP-One HTRF assay in CHO cells stably expressing human MRGPRD (versus 100 μM β-Alanine agonist). In kind it is cell-based. The method in brief:
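Cells (20,000/well, plated overnight) received antagonist and agonist in buffer with 5.7 mM Tris-HCl, 43 mM NaCl and 50 mM LiCl at pH 8. Incubation ran 1 h at 37 °C, then 1 h at room temperature, before IP-1 HTRF detection. IC50 was fitted from the HTRF ratio, and percent antagonism was taken relative to the maximum efficacy response, given as averages with SEM.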
In general terms: Time-resolved FRET reads energy transfer from a long-lived donor to a nearby acceptor.

human MRGPRD, sequence (Q8TDS7 whole entry): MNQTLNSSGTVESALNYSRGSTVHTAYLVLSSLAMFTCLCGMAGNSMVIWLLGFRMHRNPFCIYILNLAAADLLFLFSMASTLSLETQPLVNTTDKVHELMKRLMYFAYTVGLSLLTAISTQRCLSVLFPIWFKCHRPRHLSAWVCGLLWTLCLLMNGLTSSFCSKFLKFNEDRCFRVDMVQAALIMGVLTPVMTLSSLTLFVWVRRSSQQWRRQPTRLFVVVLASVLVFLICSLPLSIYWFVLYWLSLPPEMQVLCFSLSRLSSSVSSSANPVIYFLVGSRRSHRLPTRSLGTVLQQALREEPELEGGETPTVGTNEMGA

`COc1cccc(-c2nc([C@@H]3CCCN(C(=O)Nc4cccc(CO)c4)C3)n3ccccc23)c1` [Compound 6-1, (R)—N-(3-(hydroxymethyl)phenyl)-3-(1-(3-methoxyphenyl)imidazo[1,5-a]pyridin-3-yl)piperidine-1-carboxamide] registered an IC50 below 100 nM.
The compound `COc1cccc(-c2nc(C3CCCN(C(=O)c4cc(OC)c(OC)c(OC)c4)C3)n3c(OC)cccc23)c1` (centres unmarked) [Compound 14-2] yielded an IC50 above 3000 nM.
Then `CN(C)c1ccc(NC(=O)N2CCC[C@@H](c3nc(-c4cnoc4)c4ccccn34)C2)cc1` [Compound 10-53], with 500 to 1000 nM; and `COc1cccc(-c2nc([C@@H]3CCCN(C(=O)NCCc4ccnn4C)C3)n3ccccc23)c1` [Compound 10-25], with 100 to 500 nM; and `COc1cccc(-c2nc([C@@H]3CCCN(C(=O)Nc4ccc5ccccc5c4)C3)n3ccccc23)c1` [Compound 1-31], with 100 to 500 nM.
Then `COc1cccc(-c2nc(C3CCCN(C(=O)Nc4cccc(Cl)c4)C3)n3ccccc23)c1` (centres unmarked) [Compound 3-17], with 500 to 1000 nM.
In the case of `CNC(=O)N1CCC[C@@H](c2nc(-c3cccc(OC)c3)c3ccccn23)C1` [Compound 2-1, (R)-3-(1-(3-methoxyphenyl)imidazo[1,5-a]pyridin-3-yl)-N-methylpiperidine-1-carboxamide] it was above 3000 nM.
In the case of `COc1ccc(NC(=O)N2CCCC(c3nc(-c4cccc(OC)c4)c4ccccn34)C2)cc1` (centres unmarked) [Compound 3-19], the half-maximal inhibitory concentration (IC50) is 100 to 500 nM.
`COc1cccc(-c2nn(-c3cccc(C(=O)Nc4cccc(N(C)C)c4)c3)c3ncccc23)c1` [Compound 24-2] yielded a half-inhibitory concentration (IC50) of 500 to 1000 nM.
In the case of `CN(C)c1ccc(NC(=O)N2CCC[C@@H](c3nc(-c4ccccc4Cl)c4ccccn34)C2)cc1` [Compound 10-8] it was 500 to 1000 nM; in that of `COc1cccc(-c2nc([C@@H]3CCCN(C(=O)Nc4ccc(N(C)C)cc4)C3)n3ccccc23)c1` [Compound 1-2, (R)—N-(4-(dimethylamino)phenyl)-3-(1-(3-methoxyphenyl)imidazo[1,5-a]pyridin-3-yl)piperidine-1-carboxamide], below 100 nM.
Then `CN(C)c1ccc(NC(=O)N2CCC[C@@H](c3nc(-c4ccc(C(F)(F)F)cc4)c4ccccn34)C2)cc1` [Compound 10-30], with 1000 to 3000 nM; and `CN(C)c1ccc(NC(=O)N2CCC[C@@H](c3nc(-c4cccc5c4OCO5)c4ccccn34)C2)cc1` [Compound 10-51], with below 100 nM; and `COc1ccccc1-c1nc([C@@H]2CCCN(C(=O)Nc3ccc(N(C)C)cc3)C2)n2ccccc12` [Compound 10-37], with 500 to 1000 nM.
`COc1cccc(-c2nc([C@@H]3CCCN(C(=O)Nc4cccc(C(=O)N(C)C)c4)C3)n3ccccc23)c1` [Compound 5-18]: the IC50 is below 100 nM.
The compound `COc1cccc(-c2nc([C@@H]3CCCN3C(=O)Nc3ccc(N(C)C)cc3)n3ccccc23)c1` [Compound 21-5] gave an IC50 above 3000 nM.
`COc1cccc(-c2nc(C3CCCN(C(=O)Nc4ccccc4N(C)C)C3)n3ccccc23)c1` (centres unmarked) [Compound 4-3] showed a 50% inhibitory concentration (IC50) of 500 to 1000 nM.
In the case of `CN(C)c1ccc(NC(=O)N2CCC[C@@H](c3nc(-c4ccccc4S(C)(=O)=O)c4ccccn34)C2)cc1` [Compound 10-66] it was above 3000 nM; in that of `COc1cccc(-c2nc([C@H]3CCCN(S(=O)(=O)Cc4ccc(F)cc4)C3)n3ccccc23)c1` [Compound 16-8], 1000 to 3000 nM; in that of `COc1cccc(-c2nc([C@@H]3CCCN(C(=O)Nc4ccc(C)cc4)C3)n3ccccc23)c1` [Compound 1-18], 100 to 500 nM.
Then `COc1cccc(-c2nc([C@@H]3CCCN(C(=O)Nc4ccon4)C3)n3ccccc23)c1` [Compound 1-30], with 100 to 500 nM.
`CC(O)c1cccc(-c2nc([C@@H]3CCCN(C(=O)Nc4ccc(N(C)C)cc4)C3)n3ccccc23)c1` (some centres unmarked) [Compound 10-18] came in with an IC50 of 100 to 500 nM.
Take `CNC(=O)N1CCC[C@H]1c1nc(-c2cccc(OC)c2)c2ccccn12` [Compound 21-3]: the half-maximal inhibitory concentration (IC50) was above 3000 nM.
Then `COc1cccc(-c2nc([C@@H]3CCCN(C(=O)Nc4ccc5c(c4)CN(C)C5)C3)n3ccccc23)c1` [Compound 5-53], with below 100 nM.
Then `Cc1cccc(-c2nc(C3CCCN(C(=O)Nc4ccccc4F)C3)n3ccccc23)c1` (centres unmarked) [Compound 11-4], with above 3000 nM; and `COc1cccc(-c2nc(C3CCCN(C(=O)Nc4ccccc4)C3)n3ccccc23)c1` (centres unmarked) [Compound 3-6], with 100 to 500 nM; and `CN(C)c1ccc(NC(=O)N2CCC[C@@H](c3nc(-c4cccc(N(C)C)c4)c4ccccn34)C2)cc1` [Compound 10-6], with 100 to 500 nM.
Then `COc1cccc(-c2nc([C@@H]3CCCN(C(=O)NC4(c5ccccc5)CC4)C3)n3ccccc23)c1` [Compound 5-55], with below 100 nM; and `COc1cccc(-c2nc(C3CCCN(S(=O)(=O)c4ccc(F)cc4)C3)n3ccccc23)c1` (centres unmarked) [Compound 16-3], with above 3000 nM.
In turn, `CNC(=O)N1CCCC(c2nc(-c3cccc(OC)c3)c3ccccn23)C1` (centres unmarked) [Compound 3-13] yielded an IC50 above 3000 nM.
As for `CN(C)c1ccc(NC(=O)N2CCC[C@@H](c3nc(-c4cccc(C(F)F)c4)c4ccccn34)C2)cc1` [Compound 10-16], the IC50 fell in the range of 100 to 500 nM.
In the case of `COc1cccc(-c2nc(C3CCCN(C(=O)Nc4ccccc4F)C3)n3ccccc23)c1` (centres unmarked) [Compound 3-28] it was 100 to 500 nM; in that of `CCOc1cccc(-c2nc([C@@H]3CCCN(C(=O)Nc4ccc(N(C)C)cc4)C3)n3ccccc23)c1` [Compound 10-4], below 100 nM.
For the compound `COc1cccc(-c2nc([C@@H]3CCCN(C(=O)Nc4ccc(N5CCCC5)cc4)C3)n3ccccc23)c1` [Compound 1-1], the IC50 was in the range of 100 to 500 nM.
In the case of `COc1ccccc1-c1nc(C2CCCN(C(=O)Nc3ccccc3F)C2)n2ccccc12` (centres unmarked) [Compound 11-3] it was 1000 to 3000 nM.
In the case of `COc1cccc(-c2nc(C3CCCN(S(=O)(=O)Cc4ccc(F)cc4)C3)n3ccccc23)c1` (centres unmarked) [Compound 16-6] it was 100 to 500 nM; in that of `CCc1ccc(NC(=O)N2CCC[C@@H](c3nc(-c4cccc(OC)c4)c4ccccn34)C2)cc1` [Compound 1-12], below 100 nM.
Then `COc1cccc(-c2nc([C@@H]3CCCN(C(=O)NCCS(C)(=O)=O)C3)n3ccccc23)c1` [Compound 5-52], with 100 to 500 nM; and `COc1cccc(-c2nc(C3CCCN(C(=O)N(C)c4ccc(F)cc4)C3)n3ccccc23)c1` (centres unmarked) [Compound 5-2], with 1000 to 3000 nM.
As for `COc1cccc(-c2nc([C@@H]3CCCN(C(=O)Nc4cccc(CN(C)C)c4)C3)n3ccccc23)c1` [Compound 5-31], the IC50 lay within 100 to 500 nM.
Then `COc1cccc(-c2nc([C@@H]3CCN(C(=O)Nc4ccccc4F)C3)n3ccccc23)c1` [Compound 21-1, (R)—N-(2-fluorophenyl)-3-(1-(3-methoxyphenyl)imidazo[1,5-a]pyridin-3-yl)pyrrolidine-1-carboxamide], with 500 to 1000 nM; and `COc1cccc(-c2nc(C3CCCN(C(=O)Nc4ccc(C)cc4C)C3)n3ccccc23)c1` (centres unmarked) [Compound 5-4], with 100 to 500 nM.
In the case of `COc1cccc(-c2nc([C@@H]3CCCN(C(=O)NC4CCS(=O)(=O)CC4)C3)n3ccccc23)c1` [Compound 5-48] it was 100 to 500 nM; in that of `COc1cccc(-c2nc([C@H]3CCCN(C(=O)Nc4ccc(N(C)C)cc4)C3)n3ccccc23)c1` [Compound 1-5], 1000 to 3000 nM; in that of `COc1cccc(-c2nc([C@@H]3CCCN(C(=O)NC4CCc5ccccc5C4)C3)n3ccccc23)c1` (some centres unmarked) [Compound 5-38], 100 to 500 nM.
In the case of `COc1cccc(-c2nc(C3CCCN(C(=O)Nc4ccc(N(C)C)cc4)C3)n3ncccc23)c1` (centres unmarked) [Compound 5-20] it was below 100 nM; in that of `CN(C)c1ccc(NC(=O)N2CCC[C@@H](c3nc(-c4ccc(C#N)cc4)c4ccccn34)C2)cc1` [Compound 10-23], 500 to 1000 nM.

For the origin of these results see patent US20240246980A1, “MODULATORS OF MAS-RELATED G-PROTEIN RECEPTOR D AND RELATED PRODUCTS AND METHODS” (Escient Pharmaceuticals, Inc., priority 2022, published 2024).
